According to patent US20100298141A1, “SUBSTITUTED PYRIDINE N-OXIDE HERBICIDES” (E. I. DU PONT DE NEMOURS AND COMPANY, priority 2007, published 2010):

Key:
Russian thistle = test: Test C pre-/postemergence test; format: in vivo, Salsola kali
In short: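 Test chemicals were formulated with surfactant in a non-phytotoxic solvent and sprayed both on freshly planted seeds (preemergence) and on 1- to 4-leaf plants of 2–18 cm (postemergence). Flooded-paddy pots received compound directly into 3 cm of standing water, maintained for the test.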

windgrass = test: Test C pre-/postemergence test; format: in vivo, Apera spica-venti; conditions: Postemergence; for Plant response rating, Windgrass: scale 0 to 100, 0 no effect, 100 complete control
dallisgrass = test: Test F preemergence test; format: in vivo, Paspalum dilatatum; conditions: scale 0 to 100
In short: (§1)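 Compounds in a non-phytotoxic solvent formulation with surfactant were applied before emergence after sowing, or, for sugarcane, also postemergence. Evaluation was visual, against controls, after 14 to 21 greenhouse days.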

quackgrass = test: Test F preemergence test; format: in vivo, Elytrigia repens; conditions: scale 0 to 100
In short: as §1

prickly sida = test: Test F preemergence test; format: in vivo, Sida spinosa; conditions: scale 0 to 100
In short: as §1

common purslane = test: Test F preemergence test; format: in vivo, Portulaca oleracea; conditions: scale 0 to 100
In short: as §1

barnyardgrass = test: Test F preemergence test; format: in vivo, Echinochloa crus-galli; conditions: scale 0 to 100
In short: as §1

guineagrass = test: Test F preemergence test; format: in vivo, Panicum maximum; conditions: scale 0 to 100
In short: as §1

common groundsel = test: Test F preemergence test; format: in vivo, Senecio vulgaris; conditions: scale 0 to 100
In short: as §1

mustard = test: Test F preemergence test; format: in vivo, Brassica nigra; conditions: scale 0 to 100
In short: as §1

common mallow = test: Test F preemergence test; format: in vivo, Malva sylvestris; conditions: scale 0 to 100
In short: as §1

southern sandbur = test: Test F preemergence test; format: in vivo, Cenchrus echinatus; conditions: scale 0 to 100
In short: as §1

field bindweed = test: Test F preemergence test; format: in vivo, Convolvulus arvensis; conditions: scale 0 to 100
In short: as §1

green foxtail = test: Test F preemergence test; format: in vivo, Setaria viridis; conditions: scale 0 to 100
In short: as §1

itchgrass = test: Test F preemergence test; format: in vivo, Rottboellia cochinchinensis; conditions: scale 0 to 100
In short: as §1

[O-][n+]1cc(Cl)ccc1[S+]([O-])Cc1c(C(F)(F)F)nn(CC(F)(F)F)c1Cl (stereo not drawn) [Compound 47]
Russian Thistle plant response rating (Russian thistle; 125 g ai/ha, preemergence, scale 0 (no effect) to 100 (complete control)): 0
Russian Thistle plant response rating (Russian thistle; preemergence, 250 g ai/ha, scale 0 (no effect) to 100 (complete control)): 100
Plant response rating (0 to 100), Windgrass (windgrass; 31 g ai/ha): 0
Plant response rating (0 to 100), Windgrass (windgrass; 62 g ai/ha): 0
Plant response rating, Windgrass (windgrass; 125 g ai/ha): 95
Plant response rating, Windgrass (windgrass; 250 g ai/ha): 98

Cn1nc(C(F)(F)F)c(C[S+]([O-])c2cccc[n+]2[O-])c1OC(F)F (stereo not drawn) [Compound 3]
Plant response rating, Dallisgrass (dallisgrass; 8 g ai/ha, preemergence): 0
Dallisgrass plant response rating (dallisgrass; 62 g ai/ha, Preemergence): 98
Plant response rating, Dallisgrass (dallisgrass; Preemergence, 16 g ai/ha): 0
Plant response rating, Dallisgrass (dallisgrass; Preemergence, 31 g ai/ha): 75
Plant response rating, Quackgrass (quackgrass; 8 g ai/ha, preemergence): 0
Quackgrass plant response rating (quackgrass; 62 g ai/ha, Preemergence): 75
Plant response rating, Quackgrass (quackgrass; Preemergence, 16 g ai/ha): 15
Plant response rating, Quackgrass (quackgrass; Preemergence, 31 g ai/ha): 70
Russian Thistle plant response rating (Russian thistle; 31 g ai/ha, Preemergence, scale 0 to 100): 0
Plant response rating, Prickly Sida (prickly sida; 8 g ai/ha, preemergence): 0
Prickly Sida plant response rating (prickly sida; 62 g ai/ha, Preemergence): 100
Plant response rating, Prickly Sida (prickly sida; Preemergence, 16 g ai/ha): 0
Plant response rating, Prickly Sida (prickly sida; Preemergence, 31 g ai/ha): 80
Plant response rating, Purslane (common purslane; 8 g ai/ha, preemergence): 0
Purslane plant response rating (common purslane; 62 g ai/ha, Preemergence): 100
Plant response rating, Purslane (common purslane; Preemergence, 16 g ai/ha): 0
Plant response rating, Purslane (common purslane; Preemergence, 31 g ai/ha): 60
Plant response rating, Barnyardgrass (barnyardgrass; 8 g ai/ha, preemergence): 40
Barnyardgrass plant response rating (barnyardgrass; 62 g ai/ha, Preemergence): 100
Plant response rating, Barnyardgrass (barnyardgrass; Preemergence, 16 g ai/ha): 80
Plant response rating, Barnyardgrass (barnyardgrass; Preemergence, 31 g ai/ha): 90
Plant response rating (0 to 100), Windgrass (windgrass; 31 g ai/ha): 0
Plant response rating (0 to 100), Windgrass (windgrass; 62 g ai/ha): 0
Plant response rating, Windgrass (windgrass; 125 g ai/ha): 20
Plant response rating, Windgrass (windgrass; 250 g ai/ha): 70
Plant response rating, Guineagrass (guineagrass; 8 g ai/ha, preemergence): 0
Guineagrass plant response rating (guineagrass; 62 g ai/ha, Preemergence): 100
Plant response rating, Guineagrass (guineagrass; Preemergence, 16 g ai/ha): 90
Plant response rating, Guineagrass (guineagrass; Preemergence, 31 g ai/ha): 100
Plant response rating, Groundsel (common groundsel; 8 g ai/ha, preemergence): 0
Groundsel plant response rating (common groundsel; 62 g ai/ha, Preemergence): 100
Plant response rating, Groundsel (common groundsel; Preemergence, 16 g ai/ha): 0
Plant response rating, Groundsel (common groundsel; Preemergence, 31 g ai/ha): 60
Plant response rating, Black Mustard (mustard; 8 g ai/ha, preemergence): 35
Black Mustard plant response rating (mustard; 62 g ai/ha, Preemergence): 100
Plant response rating, Black Mustard (mustard; Preemergence, 16 g ai/ha): 60
Plant response rating, Black Mustard (mustard; Preemergence, 31 g ai/ha): 95
Plant response rating, Mallow (common mallow; 8 g ai/ha, preemergence): 0
Mallow plant response rating (common mallow; 62 g ai/ha, Preemergence): 75
Plant response rating, Mallow (common mallow; Preemergence, 16 g ai/ha): 0
Plant response rating, Mallow (common mallow; Preemergence, 31 g ai/ha): 0
Plant response rating, Sandbur (southern sandbur; 8 g ai/ha, preemergence): 20
Plant response rating, Sandbur (southern sandbur; 16 g ai/ha, preemergence): 65
Sandbur plant response rating (southern sandbur; 62 g ai/ha, Preemergence): 95
Plant response rating, Sandbur (southern sandbur; Preemergence, 31 g ai/ha): 90
Plant response rating, Field Bindweed (field bindweed; 8 g ai/ha, preemergence): 0
Field Bindweed plant response rating (field bindweed; 62 g ai/ha, Preemergence): 25
Plant response rating, Field Bindweed (field bindweed; Preemergence, 16 g ai/ha): 0
Plant response rating, Field Bindweed (field bindweed; Preemergence, 31 g ai/ha): 25
Plant response rating, Foxtail, Green (green foxtail; 8 g ai/ha, preemergence): 0
Foxtail, Green plant response rating (green foxtail; 62 g ai/ha, Preemergence): 95
Plant response rating, Foxtail, Green (green foxtail; Preemergence, 16 g ai/ha): 40
Plant response rating, Foxtail, Green (green foxtail; Preemergence, 31 g ai/ha): 75
Plant response rating, Itchgrass (itchgrass; 8 g ai/ha, preemergence): 0
Itchgrass plant response rating (itchgrass; 62 g ai/ha, Preemergence): 90
Plant response rating, Itchgrass (itchgrass; Preemergence, 16 g ai/ha): 35
Plant response rating, Itchgrass (itchgrass; Preemergence, 31 g ai/ha): 70
